Test results from patent publication US5795977A, “Water soluble adenosine kinase inhibitors” (Metabasis Therapeutics, Inc., priority 1996, dated 1998).
pIC50: −log10 of the molar value. Counter-ions that a name gives are not always drawn. Like-named read-outs stand apart in the source and are kept apart here.

Assays:
[1] = test system: rat cardiomyocytes; conditions: inhibition of adenosine deaminase alone; cited from earlier work
[2] = test system: isolated guinea pig hearts; conditions: in the absence of ADA inhibition; cited from earlier work
[3] = test system: isolated rat hearts; conditions: alone, cited from earlier work
[4] = test system: ischemic cerebral injury; conditions: in vivo; cited from earlier work
[5] = test system: mice; conditions: cited from earlier work
[6] = test system: Female SA rats; assay: Liver toxicity assay; assay type: in vivo; conditions: rat, i.v. infusion, total dose 75 μmole/kg, serum
Method: Female SA rats (150-200 g) are anesthetized with halothane and cannulated via the internal jugular vein. The animals are allowed to recover for 3 days. At this time, 37.5 μmole/kg of an AK inhibitor is dissolved in 50% PEG400 and infused through the jugular catheter over 20 minutes. Twelve hours later, an additional 37.5 μmole/kg is infused over 20 minutes (total dose =75 μmole/kg). […] Liver enzymes (serum glutamic-oxaloacetic transaminase (SGOT), serum glutamic-pyruvic transaminase (SGPT), alkaline phosphatase) and total bilirubin in the serum samples are determined by a commercial laboratory.

[7] = test system: Rats (carrageenan paw); assay: Anti-inflammatory activity, carrageenan paw swelling; assay type: in vivo; conditions: rat, 10 mg/kg, swelling after 3 hours; for Carrageenan Paw (% inhibition) po: oral gavage
Method: Carrageenan (Type λ) was suspended in sterile PBS at 1% (w/v), autoclaved for 30 minutes, and stored at room temperature. Rats were pretreated with vehicle or AK inhibitor (10 mg/kg) by oral gavage or i.p. administration and the volume of the left hind paw was measured using a water displacement plethysmometer (Stoelting Co., Wood Dale, Ill.). One hour after oral treatment or 30 minutes after i.p. treatment, the rats were briefly anesthetized, and 0.1 ml of the carrageenan solution was injected subcutaneously into the planar surface of the left hind paw. The ensuing paw swelling was measured by plethysmometry after 3 hours. The paw volume in millileters was […]. Data are presented in Table 2 as the percent inhibition of paw swelling in AK inhibitor treated animals, compared to vehicle treated control animals.

[8] = test system: male SA rats (maximal electroshock seizures); assay: Anticonvulsant activity, maximal electroshock seizures (MES); assay type: in vivo; conditions: rat, po, fasted; >> = no activity at the stated dose
Method: The anticonvulsant activity of the tested compounds was evaluated in male SA rats (100-150g, Simonsen) using the maximal electroshock (MES) model described in Swinyard et al., Antiepileptic Drugs, 3d Ed. at 85-102 (Levy, et al., eds.), NY: Raven Press (1989). The rats were maintained on a 12/12 light/dark cycle in temperature controlled facilities with free access to food and water. For p.o. administration, the animals are fasted overnight, prior to the experiment. One to two hours prior to seizure testing, the animals were injected interperitoneally (ip) or orally (per os, po) with one of various doses of test compound dissolved in DMSO or PEG 400.
This endpoint was expressed as the percentage of animals in which the response was inhibited.

[9] = target: partially purified pig heart adenosine kinase or recombinant human adenosine kinase; assay: AK inhibition; assay type: biochemical; conditions: 0.5 μM [U-14C] adenosine, pH 7.0, 37° C., 20 minutes
Method: Adenosine kinase activity was measured essentially as described by Yamada et al. Biochim. Biophys. Acta 660, 36-43 (1988) with a few minor modifications. Assay mixtures contained 50 mM TRIS-maleate buffer, pH 7.0, 0.1% BSA, 1 mM ATP 1 mM MgCl2, 0.5 μM [U-^14 C] adenosine (400-600 mCi/mmol) and varying duplicate concentrations of inhibitor. […] The amount of ^14 C-AMP was quantified by scintillation counting.

[10] = test system: mice; assay: HPLC analysis of plasma, metabolism in mice; assay type: in vivo, mouse; conditions: oral, 10 mg/kg

| pIC50 [9] | SMILES | SGPT [6] [IU/L] | Carrageenan Paw (% inhibition) ip [7] [%] | Carrageenan Paw (% inhibition) po [7] [%] | further results |
| --- | --- | --- | --- | --- | --- |
|  | OC[C@H]1O[C@@H](n2cnc3c2N=CNC[C@H]3O)C[C@@H]1O [2'-deoxycoformycin] |  |  |  | adenosine release [1]: no effect on adenosine release |
|  | NC[C@H]1O[C@@H](n2cnc3c(N)ncnc32)[C@H](O)[C@@H]1O [5'-amino-5'-deoxyadenosine] |  |  |  | effect on adenosine release [2]: not apparent |
|  | Nc1ncnc2c1c(I)cn2[C@@H]1O[C@H](CO)[C@@H](O)[C@H]1O [5-iodotubercidin] |  |  |  | perfusate adenosine concentration ([3]; hypoxic, anoxic or ischemic conditions): no increase in perfusate adenosine concentration; perfusate adenosine concentration ([3]; normoxic conditions): no increase in perfusate adenosine concentration; protection against ischemic cerebral injury [4]: does not protect against ischemic cerebral injury; flaccidity (skeletal muscle relaxation) [5]: pronounced general flaccidity |
|  | C[C@H]1O[C@@H](n2cc(-c3ccccc3)c3c(Nc4ccc(CN(C)C)cc4)ncnc32)[C@H](O)[C@@H]1O [Compound 1, 4-N-(4-(N,N-Dimethylaminomethyl)phenyl)amino-5-phenyl-7-(5-deoxy-β-D-ribofuranosyl)pyrrolo[2,3-d]pyrimidine] | 44 | 26.0 |  | Alkaline Phosphatase [6]: 131 IU/L; SGOT [6]: 75 IU/L |
| 9.00 | CCN(CC)CCNCCc1ccc(Nc2ncnc3c2c(-c2ccccc2)cn3[C@@H]2O[C@H](C)[C@@H](O)[C@H]2O)cc1 [Compound 5, 4-N-[4-(2-(2-N,N-diethylaminoethyleneamino)ethyl)phenyl]amino-5-phenyl-7-(5-deoxy-β-D-ribofuranosyl)pyrrolo[2,3-d]pyrimidine] |  | 0.0 | 4.1 | ED50 [8]: > 10 mg/kg |
| 9.00 | CCN(CC)CCc1ccc(Nc2ncnc3c2c(-c2ccccc2)cn3[C@@H]2O[C@H](C)[C@@H](O)[C@H]2O)cc1 [Compound 6, 4-N-[4-(2-N,N-diethylaminoethyl)phenyl]amino-5-phenyl-7-(5-deoxy-β-D-ribofuranosyl)pyrrolo[2,3-d]pyrimidine] | 110 | 81.5 | 42.6 | Alkaline Phosphatase [6]: 104 IU/L; SGOT [6]: 306 IU/L; Total Bilirubin [6]: 0.43 mg/dL |
| 9.52 | OC[C@@H]1O[C@@H](n2cc(-c3ccccc3)c3c(Nc4ccc(CCN5CCNCC5)cc4)ncnc32)[C@H](O)[C@@H]1O [Compound 12, 4-N-[4-(1-piperazinoethyl)phenyl]amino-5-phenyl-7-α-L-lyxofuranosylpyrrolo[2,3-d]pyrimidine] | 76 | 58.8 | 51.0 | Alkaline Phosphatase [6]: 106 IU/L; SGOT [6]: 211 IU/L; Total Bilirubin [6]: 0.41 mg/dL |
| 5.00 | C[C@H]1O[C@@H](n2cc(I)c3c(NCCc4ccccn4)ncnc32)[C@H](O)[C@@H]1O [Compound 43, 4-N-(2-(2-pyridylethyl)amino)-5-iodo-7-(5-deoxy-1-β-D-ribofuranosyl)pyrrolo[2,3-d]pyrimidine] |  |  |  | metabolism to a potent AK inhibitor, HPLC analysis of plasma [10]: undergo metabolism in mice after oral administratio |
| 7.17 | C[C@H]1O[C@@H](n2cc(-c3ccccc3)c3c(NCc4ccncc4)ncnc32)[C@H](O)[C@@H]1O [Compound 49, 4-N-(4-pyridylmethyl)amino-5-phenyl-7-(5-deoxy-1-β-D-ribofuranosyl)-pyrrolo[2,3-d]pyrimidine] |  |  |  | ED50 [8]: > 40 mg/kg |
| 9.00 | C[C@H]1O[C@@H](n2cc(-c3ccccc3)c3c(Nc4ccc(CCNC(=N)N)cc4)ncnc32)[C@H](O)[C@@H]1O [Compound 267, 4-N-[4-(2-Guanidinoethyl)phenyl]amino-5-phenyl-7-(5-deoxy-1-β-D-ribofuranosyl)pyrrolo[2,3-d]pyrimidine hydrochloride] |  | 52.3 | 15.4 |  |
| 9.00 | C[C@H]1O[C@@H](n2cc(-c3ccccc3)c3c(Nc4ccc(CCNC(=O)c5cccnc5)cc4)ncnc32)[C@H](O)[C@@H]1O [Compound 268, 4-N-[2-(Nicotinylaminoethyl)phenyl]amino-5-phenyl-7-(5-deoxy-1-β-D-ribofuranosyl)pyrrolo(2,3-d)pyrimidine] |  | 0.0 | 7.1 |  |
|  | C[C@H]1O[C@@H](n2cc(I)c3c(N)ncnc32)[C@H](O)[C@@H]1O [REF.A, reference compound] | 76 |  |  | Total Bilirubin [6]: 0.76 mg/dL; flaccidity (skeletal muscle relaxation) [5]: pronounced general flaccidity |
|  | NC[C@H]1O[C@@H](n2nc(Br)c3c(N)ncnc32)[C@H](O)[C@@H]1O [REF.B, 4amino-1-(5-amino-5-deoxy-1-D-ribofuranosyl)-3-bromopyrazolo[3,4d]pyrimidne HCL, reference compound] | 41 |  |  | SGOT [6]: 100 IU/L; Total Bilirubin [6]: 0.30 mg/dL |

| SMILES | pIC50 [9] | SGPT [6] [IU/L] | Carrageenan Paw (% inhibition) ip [7] [%] | Carrageenan Paw (% inhibition) po [7] [%] | further results |
| --- | --- | --- | --- | --- | --- |
| C[C@H]1O[C@@H](n2cc(-c3ccccc3)c3c(Nc4ccc(C(=O)N5CCNCC5)cc4)ncnc32)[C@H](O)[C@@H]1O [Compound 210, 4-N-[4-(4-piperazinocarbonylphenyl)]amino-5-phenyl-7-(5-deoxy-1-β-D-ribofuranosyl)pyrrolo[2,3-d]pyrimidine] | 8.70 |  | 23.8 | 0.0 |  |
| C[C@H]1O[C@@H](n2cc(-c3ccccc3)c3c(Nc4ccc(C(=O)NN5CCCCC5)cc4)ncnc32)[C@H](O)[C@@H]1O [Compound 212] | 8.70 |  | 1.8 | 0.0 |  |
| C[C@H]1O[C@@H](n2cc(-c3ccccc3)c3c(Nc4ccc(CCS(=O)(=O)O)cc4)ncnc32)[C@H](O)[C@@H]1O [Compound 265, 4-N[4-(2-Sulfonyloxyethyl)phenylamino]-5-phenyl-7-(5-deoxy-1-β-D-ribofuranosyl)pyrrolo[2,3-d]pyrimidine] | 8.70 |  | 10.0 | 6.2 |  |
